Reference: ChEMBL document CHEMBL1201862, “PubChem BioAssay data set” (2004)
Activity calls are given as the source filed them.

Key:
[1] = cytotoxicity in KRAS-transformed pancreatic duct cells, primary screen, cell-based, fluorescence, HTS (AID 431); type: functional; conditions: Homo sapiens;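 note: cell line used: HPDE-C7K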
[2] = cytotoxicity in HPDE-C7 cells, cell-based, fluorescence, HTS (AID 430); type: functional; conditions: Homo sapiens
Genome polyprotein = Genome polyprotein (dengue virus type 2, UniProt P29990); experiment: Dengue-2 NS5 methyltransferase inhibitors, primary screen, biochemical, confirmation dose response (AID 588689); type: functional
Sequence of Genome polyprotein (P29990 2492-3391 limits assumed): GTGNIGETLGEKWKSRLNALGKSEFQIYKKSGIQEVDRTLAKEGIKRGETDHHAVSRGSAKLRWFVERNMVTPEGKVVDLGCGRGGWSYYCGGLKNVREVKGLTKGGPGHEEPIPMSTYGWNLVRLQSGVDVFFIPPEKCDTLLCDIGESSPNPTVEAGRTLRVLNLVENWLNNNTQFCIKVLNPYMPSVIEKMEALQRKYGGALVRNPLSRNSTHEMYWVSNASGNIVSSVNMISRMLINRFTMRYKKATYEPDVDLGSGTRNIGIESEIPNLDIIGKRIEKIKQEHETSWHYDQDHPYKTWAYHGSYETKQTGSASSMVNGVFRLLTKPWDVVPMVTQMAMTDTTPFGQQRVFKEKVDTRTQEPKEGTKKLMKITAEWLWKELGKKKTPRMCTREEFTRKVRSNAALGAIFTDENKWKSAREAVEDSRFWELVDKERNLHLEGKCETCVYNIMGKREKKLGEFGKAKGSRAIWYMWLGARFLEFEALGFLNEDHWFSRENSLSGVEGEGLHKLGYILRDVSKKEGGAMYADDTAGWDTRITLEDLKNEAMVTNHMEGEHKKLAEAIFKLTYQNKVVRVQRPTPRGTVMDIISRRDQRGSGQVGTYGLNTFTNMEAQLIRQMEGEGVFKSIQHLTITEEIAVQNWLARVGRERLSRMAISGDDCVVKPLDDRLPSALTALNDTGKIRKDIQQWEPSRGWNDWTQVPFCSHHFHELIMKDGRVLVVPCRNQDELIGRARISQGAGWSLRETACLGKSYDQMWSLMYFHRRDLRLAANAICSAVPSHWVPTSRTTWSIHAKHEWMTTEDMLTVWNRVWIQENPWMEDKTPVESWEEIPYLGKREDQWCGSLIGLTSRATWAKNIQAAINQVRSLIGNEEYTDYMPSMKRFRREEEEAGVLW

Procathepsin L = Procathepsin L (Homo sapiens, UniProt P07711); experiment: cathepsin L inhibitors, dose response, counter-screen for M1/M17 aminopeptidase inhibitor project, biochemical, QFRET, 1536-well (AID 2214)
Sequence of Procathepsin L (P07711 whole entry): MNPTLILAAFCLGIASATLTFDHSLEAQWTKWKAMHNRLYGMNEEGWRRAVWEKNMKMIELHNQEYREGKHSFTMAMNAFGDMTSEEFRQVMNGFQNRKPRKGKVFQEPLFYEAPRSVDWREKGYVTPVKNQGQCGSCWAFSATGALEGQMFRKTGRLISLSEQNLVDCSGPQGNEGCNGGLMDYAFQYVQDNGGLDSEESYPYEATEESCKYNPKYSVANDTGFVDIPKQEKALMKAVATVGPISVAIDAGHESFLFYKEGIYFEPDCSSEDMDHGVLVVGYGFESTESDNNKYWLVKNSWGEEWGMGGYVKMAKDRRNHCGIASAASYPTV

Aminopeptidase N = molecular target: T1, Aminopeptidase N (Plasmodium falciparum FcB1/Columbia, UniProt O96935); experiment: P. falciparum M1AAP inhibitors, biochemical, fluorogenic H-Leu-NHMec substrate, 1536-well (AID 1445); design: species or system Plasmodium falciparum 3D7, 3D7
T1 sequence (O96935 whole entry): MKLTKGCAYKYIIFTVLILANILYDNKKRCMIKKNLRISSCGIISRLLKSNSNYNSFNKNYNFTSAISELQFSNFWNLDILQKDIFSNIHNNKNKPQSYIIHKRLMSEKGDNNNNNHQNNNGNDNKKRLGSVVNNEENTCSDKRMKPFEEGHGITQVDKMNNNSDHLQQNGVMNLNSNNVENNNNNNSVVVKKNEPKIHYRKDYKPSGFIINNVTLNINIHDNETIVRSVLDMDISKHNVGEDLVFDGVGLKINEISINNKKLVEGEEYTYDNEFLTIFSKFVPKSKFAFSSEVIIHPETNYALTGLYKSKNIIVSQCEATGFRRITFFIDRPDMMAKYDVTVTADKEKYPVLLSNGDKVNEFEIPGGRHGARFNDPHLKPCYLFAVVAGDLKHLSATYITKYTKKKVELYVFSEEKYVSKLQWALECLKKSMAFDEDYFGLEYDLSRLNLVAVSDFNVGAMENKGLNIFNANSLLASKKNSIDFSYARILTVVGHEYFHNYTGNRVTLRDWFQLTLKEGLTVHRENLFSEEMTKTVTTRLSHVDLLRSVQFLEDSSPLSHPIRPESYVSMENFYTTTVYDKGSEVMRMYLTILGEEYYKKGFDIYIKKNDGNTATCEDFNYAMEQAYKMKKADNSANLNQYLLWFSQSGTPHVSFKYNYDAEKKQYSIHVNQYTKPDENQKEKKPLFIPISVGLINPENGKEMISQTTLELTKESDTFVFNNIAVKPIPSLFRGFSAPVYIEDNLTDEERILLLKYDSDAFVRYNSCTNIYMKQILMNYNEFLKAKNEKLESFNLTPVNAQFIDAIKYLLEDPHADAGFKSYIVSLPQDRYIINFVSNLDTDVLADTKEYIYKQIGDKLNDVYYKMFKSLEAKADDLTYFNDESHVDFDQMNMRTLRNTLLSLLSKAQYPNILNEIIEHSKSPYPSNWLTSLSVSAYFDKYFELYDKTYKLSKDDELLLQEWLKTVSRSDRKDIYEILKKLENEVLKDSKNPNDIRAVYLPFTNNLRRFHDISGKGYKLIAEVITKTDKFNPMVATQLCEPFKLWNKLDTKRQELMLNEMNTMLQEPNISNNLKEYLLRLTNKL

Aspartyl aminopeptidase = molecular target: T2, Aspartyl aminopeptidase (Plasmodium falciparum 3D7, UniProt Q8I2J3); experiment: Counterscreen for inhibitors of M1 and M17 aminopeptidases: QFRET-based biochemical high throughput dose response assay for inhibitors of the Plasmodium falciparum M18 Aspartyl Aminopeptidase (PFM18AAP). [Related PubChem assays: 1619 (Screening assay (M17LAP inhibitors).), 1445 (Screening assay (M1AAP inhibitors).)]
T2 sequence (Q8I2J3 whole entry): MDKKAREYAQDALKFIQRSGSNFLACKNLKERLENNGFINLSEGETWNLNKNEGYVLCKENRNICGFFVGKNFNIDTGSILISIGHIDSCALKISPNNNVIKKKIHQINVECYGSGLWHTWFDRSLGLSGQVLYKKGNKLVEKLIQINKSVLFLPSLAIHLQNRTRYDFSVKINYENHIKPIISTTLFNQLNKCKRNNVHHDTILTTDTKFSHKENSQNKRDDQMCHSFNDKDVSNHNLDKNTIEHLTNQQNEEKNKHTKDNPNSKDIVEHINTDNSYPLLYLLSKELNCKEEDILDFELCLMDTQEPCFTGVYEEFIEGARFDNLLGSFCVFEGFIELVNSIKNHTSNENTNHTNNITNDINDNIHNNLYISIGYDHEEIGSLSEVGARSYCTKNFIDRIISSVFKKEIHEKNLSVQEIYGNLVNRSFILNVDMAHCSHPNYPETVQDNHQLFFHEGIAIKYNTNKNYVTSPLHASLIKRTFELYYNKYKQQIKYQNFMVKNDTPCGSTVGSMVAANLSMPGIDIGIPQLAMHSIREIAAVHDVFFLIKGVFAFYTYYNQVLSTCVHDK

Row | IC50 (Genome polyprotein) | IC50 (Procathepsin L) | IC50 (Aminopeptidase N) | IC50 (Aspartyl aminopeptidase) | Compound | EC50 [1] | EC50 [2]
1 | – | – | – | – | CCSC1=C(C#N)C(=O)n2c1cc1c2CCCC1 | 15.4 µM (active) | 13.6 µM (active)
2 | 57.4 µM (active) | > 59.6 µM (not active) | 16.6 µM (active) | > 73.5 µM (not active) | O=C1/C(=C/c2cccs2)SC(=S)N1NS(=O)(=O)c1ccccc1 | – | –
